In ChEMBL document CHEMBL1201862, “PubChem BioAssay data set” (2004):
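Each compound was tested at five concentrations against cells in 96-well plates for 48 hours. GI50 = concentration required for 50% inhibition of growth.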 The source made the active and inactive calls. No stated cut-off is given here; in the data, active = GI50 up to about 1.1 µM and inactive = higher.

Experiments:
Assay in all cases: NCI anticancer screen, dose series, 48 h
786-0 = test system: 786-0
CAKI-1 = test system: CAKI-1
SK-MEL-2 = test system: SK-MEL-2
T47D = test system: T47D
RXF 393 = test system: RXF 393
NCI-H23 = test system: NCI-H23
HL-60 = test system: HL-60
OVCAR-3 = test system: OVCAR-3
EKVX = test system: EKVX
SF-268 = test system: SF-268
SK-MEL-28 = test system: SK-MEL-28
RPMI-8226 = test system: RPMI-8226
MDA-MB-435 = test system: MDA-MB-435
COLO 205 = test system: COLO 205
UACC-257 = test system: UACC-257
PC-3 = test system: PC-3
NCI-H522 = test system: NCI-H522
SF-539 = test system: SF-539

Measured: GI50

CC(=O)OCc1cncn1S(=O)(=O)c1ccc(C)cc1
inactive: 786-0 > 100 µM | CAKI-1 > 100 µM | SK-MEL-2 > 100 µM | T47D 79.4 µM | RXF 393 > 100 µM | NCI-H23 > 100 µM | HL-60 10.8 µM | OVCAR-3 43.5 µM | EKVX > 100 µM | SF-268 > 100 µM | SK-MEL-28 > 100 µM | RPMI-8226 35 µM | MDA-MB-435 10.4 µM | COLO 205 53.1 µM | UACC-257 > 100 µM | PC-3 > 100 µM | NCI-H522 71.9 µM | SF-539 86.9 µM

O=P1(Oc2ccccc2)N(CCCl)CCN1c1ccccc1 (stereo not drawn)
inactive: 786-0 > 100 µM | CAKI-1 > 100 µM | SK-MEL-2 > 100 µM | T47D > 100 µM | RXF 393 58.5 µM | NCI-H23 > 100 µM | HL-60 > 100 µM | OVCAR-3 > 100 µM | EKVX 80.4 µM | SF-268 > 100 µM | SK-MEL-28 > 100 µM | RPMI-8226 > 100 µM | MDA-MB-435 > 100 µM | COLO 205 > 100 µM | UACC-257 79.6 µM | PC-3 > 100 µM | NCI-H522 > 100 µM | SF-539 > 100 µM

Cc1cc(NS(=O)(=O)c2ccc(NC(=O)c3cccc4c(NNc5ccc(S(=O)(=O)N=C(N)N)cc5)c5ccccc5nc34)cc2)no1
inactive: 786-0 > 100 µM | CAKI-1 > 100 µM | SK-MEL-2 19.5 µM | T47D 34.6 µM | RXF 393 46.8 µM | NCI-H23 74.5 µM | HL-60 26.7 µM | OVCAR-3 41.2 µM | EKVX 19.7 µM | SF-268 39 µM | SK-MEL-28 33.9 µM | RPMI-8226 82 µM | MDA-MB-435 92.9 µM | COLO 205 91.6 µM | UACC-257 > 100 µM | PC-3 46.1 µM | NCI-H522 29 µM | SF-539 40.1 µM

[O-][n+]1onc(-c2ccccc2)c1CN1CCOCC1
inactive: 786-0 > 100 µM | CAKI-1 > 100 µM | SK-MEL-2 > 100 µM | T47D 71.6 µM | RXF 393 > 100 µM | NCI-H23 > 100 µM | HL-60 20.7 µM | OVCAR-3 93.1 µM | EKVX > 100 µM | SF-268 > 100 µM | SK-MEL-28 > 100 µM | RPMI-8226 76.6 µM | MDA-MB-435 > 100 µM | COLO 205 > 100 µM | UACC-257 > 100 µM | PC-3 77.8 µM | NCI-H522 26.4 µM | SF-539 > 100 µM

COC(=O)[C@]1(c2cc3ccccc3[nH]2)CC2CN(C(=O)OCc3ccccc3)C1CC2=O (stereo partly drawn)
inactive: 786-0 23.8 µM | CAKI-1 38.5 µM | SK-MEL-2 18.2 µM | T47D 22.5 µM | RXF 393 16.2 µM | NCI-H23 29.7 µM | HL-60 16.4 µM | OVCAR-3 28.8 µM | EKVX 17.1 µM | SF-268 27.4 µM | SK-MEL-28 39.3 µM | RPMI-8226 17.5 µM | MDA-MB-435 30.1 µM | COLO 205 16.5 µM | UACC-257 36.3 µM | PC-3 17.1 µM | NCI-H522 20.6 µM | SF-539 28.3 µM

Cc1occc1C(=S)Nc1ccc(Cl)c(/C=N/OC(C)(C)C)c1
inactive: 786-0 18.7 µM | CAKI-1 17.2 µM | SK-MEL-2 17.9 µM | T47D 16.5 µM | RXF 393 13.4 µM | NCI-H23 15.3 µM | HL-60 17.3 µM | OVCAR-3 15.6 µM | EKVX 18.4 µM | SF-268 22.6 µM | SK-MEL-28 17.7 µM | RPMI-8226 16.7 µM | MDA-MB-435 16.6 µM | COLO 205 17.5 µM | UACC-257 16.7 µM | PC-3 16 µM | NCI-H522 11.7 µM | SF-539 31.2 µM
